TGI and GI50 data for 14 compounds are collected here from PubChem BioAssay (NCI).

Among the test systems are HCC-2998 colon; SK-OV-3 ovarian; PC-3 prostate; K-562 leukemia; U251 CNS; MDA-MB-435; T-47D breast; HCT-15 colon; SNB-75 CNS; COLO 205 colon.
Common to all, as to assay: growth of human tumour cells (NCI), 48 h

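48-hour exposure; five concentrations; linearly interpolated endpoints. GI50: concentration for 50% inhibition of growth. TGI: concentration producing complete growth inhibition.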 Where a SMILES comes first, the peptide text is derived from it. The star is where a group is joined. Boc = CC(C)(C)OC(=O)*

Regarding `COC(=O)c1c2c(cc3c1CC1(Cc4cc5c(c(C)c4C1)CCC5)C3)CCC2` (stereo not given), the TGI in the assay with HCC-2998 colon, in the assay with SK-OV-3 ovarian, in the assay with PC-3 prostate, in the assay with K-562 leukemia, with U251 CNS and in the assay on MDA-MB-435 was over 100 µM throughout. The TGI in the assay with T-47D breast and in the assay on HCT-15 colon was over 100 µM throughout.

As to `CCCC1=C(OC)C(=O)c2c(C)cc(Cl)nc2C1=O`, the TGI in the assay with SNB-75 CNS is 20.1 µM; in the assay with HCC-2998 colon it was 20.2 µM; in the assay on SK-OV-3 ovarian, 31 µM; with PC-3 prostate, 26.4 µM; in the assay on U251 CNS it was 18.6 µM; in the assay with MDA-MB-435 it was 3.45 µM. Besides, the TGI with COLO 205 colon was found to be 22.1 µM; in the assay with T-47D breast it was 9.83 µM; in the assay with HCT-15 colon, 11.2 µM.

For `COC(=O)c1onc(C2OC(C)(C)OC2C(O)COC(c2ccccc2)(c2ccccc2)c2ccccc2)c1C(=O)OC` (stereo not given), the TGI in the assay with HCC-2998 colon, with PC-3 prostate, with K-562 leukemia, with U251 CNS, with MDA-MB-435 and with COLO 205 colon was over 100 µM throughout. In addition, the TGI in the assay on T-47D breast and in the assay on HCT-15 colon was over 100 µM in each case.

Take `C=CC(C)(C)/C=C/c1ccc(O)cc1`: the TGI with HCC-2998 colon was 79.9 µM; in the assay on SK-OV-3 ovarian it was over 100 µM; with PC-3 prostate, 89.4 µM; with U251 CNS, over 100 µM; in the assay with MDA-MB-435 it was over 100 µM; in the assay with COLO 205 colon it was over 100 µM. In addition, the TGI in the assay on T-47D breast was 95 µM; in the assay with HCT-15 colon it was over 100 µM.

Turning to `CC(CCc1nc2ccccc2s1)(c1ccc(O)cc1)c1ccc(O)cc1`, the TGI in the assay on SNB-75 CNS turned out to be 34 µM; with HCC-2998 colon it was 33.8 µM; with PC-3 prostate, 27.9 µM; in the assay on K-562 leukemia it was 47.2 µM; with U251 CNS, 27.7 µM; in the assay on MDA-MB-435, 30.8 µM. The TGI stood at 95.2 µM with T-47D breast and 35.4 µM in the assay with HCT-15 colon.

`COc1cc(S(=O)(=O)Nc2ccc(-c3csc(N4C(=O)C(Cl)C4c4ccccc4O)n3)cc2)ccc1Cl` (stereo not given): the TGI was over 100 µM in the assay on SNB-75 CNS; 38.5 µM in the assay on HCC-2998 colon; over 100 µM in the assay with SK-OV-3 ovarian; over 100 µM in the assay with PC-3 prostate; over 100 µM in the assay with K-562 leukemia; over 100 µM in the assay with MDA-MB-435. The results for the TGI in the assay on COLO 205 colon, in the assay with T-47D breast and with HCT-15 colon were 90.1 µM, 29.5 µM and over 100 µM, respectively.

Regarding `COC(=O)C(Cc1c[nH]c2ccccc12)NC(=O)C(Cc1c[nH]c2ccccc12)NC(=O)C(Cc1c[nH]c2ccccc12)NC(=O)C(Cc1c[nH]c2ccccc12)NC(=O)C(Cc1c[nH]c2ccccc12)NC(=O)C(Cc1c[nH]c2ccccc12)NC(=O)C(Cc1c[nH]c2ccccc12)NC(=O)OC(C)(C)C` (stereo not given) (Boc-WWWWWWW-OMe; configuration not given here), the TGI with SNB-75 CNS, in the assay with HCC-2998 colon, in the assay on PC-3 prostate, in the assay with K-562 leukemia, with U251 CNS and in the assay with MDA-MB-435 was over 100 µM throughout. The TGI with T-47D breast and in the assay with HCT-15 colon was over 100 µM throughout.

Turning to `O=c1c2ccccc2nc(N/N=C/c2ccc([N+](=O)[O-])cc2)n1-c1ccccc1`, the TGI in the assay with SNB-75 CNS was 56.7 µM; in the assay with SK-OV-3 ovarian, 64.8 µM; in the assay with PC-3 prostate, over 100 µM; with K-562 leukemia, over 100 µM; in the assay on U251 CNS, 48.4 µM; with MDA-MB-435 it was over 100 µM. The TGI in the assay on COLO 205 colon, in the assay on T-47D breast and in the assay with HCT-15 colon was over 100 µM each time.

As for `NC1CCCCC1NCCNC1CCCCC1N` (stereo not given), the TGI was 81.7 µM in the assay on HCC-2998 colon; over 100 µM with SK-OV-3 ovarian; over 100 µM in the assay on PC-3 prostate; over 100 µM with K-562 leukemia; over 100 µM with U251 CNS; over 100 µM with MDA-MB-435. In addition, the TGI in the assay on COLO 205 colon is 30.8 µM; with T-47D breast it was over 100 µM; in the assay with HCT-15 colon, over 100 µM.

Turning to `O=C(Nc1ccc(-n2cc(-c3ccncc3)c(-c3ccc(O)c(Cl)c3)n2)cc1)c1ccc(Cl)c(C(F)(F)F)c1`, the GI50 with SNB-75 CNS is 2.23 µM; in the assay on HCC-2998 colon, 2.82 µM; with PC-3 prostate, 1.37 µM; with K-562 leukemia, 1.37 µM; in the assay with U251 CNS it was 0.867 µM; in the assay on MDA-MB-435 it was 2.06 µM. For the same compound, the GI50 with COLO 205 colon was 7.67 µM; in the assay on T-47D breast, 3.43 µM; in the assay on HCT-15 colon, 1.21 µM. Further, the TGI is over 50 µM with SNB-75 CNS; over 50 µM in the assay with HCC-2998 colon; over 50 µM with PC-3 prostate; over 50 µM in the assay on K-562 leukemia; 6.76 µM with U251 CNS; 39.4 µM in the assay with MDA-MB-435. Moreover, the TGI with COLO 205 colon stood at 26 µM; in the assay on T-47D breast, 37.2 µM; with HCT-15 colon, 4.39 µM.

Take `Cc1c(OCc2cccc3ccccc23)ccc2c(=O)cc(SCCN3CCOCC3)oc12`: the TGI in the assay on SNB-75 CNS, in the assay on HCC-2998 colon, in the assay on PC-3 prostate, with K-562 leukemia, in the assay with U251 CNS and in the assay with MDA-MB-435 was over 100 µM each time. For the same compound, the TGI in the assay on COLO 205 colon, with T-47D breast and in the assay on HCT-15 colon was over 100 µM throughout.

Regarding `O=C(O)CSC1=NNC2(C(=O)N1)c1ccccc1-c1ccccc12`, the TGI in the assay with SNB-75 CNS, in the assay on HCC-2998 colon, in the assay on SK-OV-3 ovarian, in the assay with PC-3 prostate, with K-562 leukemia and with MDA-MB-435 was over 10 µM throughout. For the same compound, the TGI in the assay on COLO 205 colon, with T-47D breast and with HCT-15 colon was over 10 µM in each case.

Regarding `Cc1ccc(-n2nncc2[Si](C)(C)C)s1`, the TGI in the assay on HCC-2998 colon, in the assay on SK-OV-3 ovarian, with PC-3 prostate, in the assay with K-562 leukemia, with U251 CNS and in the assay on MDA-MB-435 was over 100 µM throughout. Also, the TGI in the assay with COLO 205 colon, with T-47D breast and in the assay with HCT-15 colon was over 100 µM throughout.

As for `O=c1[nH]cc(N=Cc2cc(Cl)ccc2O)c(=O)[nH]1`, the TGI with HCC-2998 colon is over 100 µM; in the assay with SK-OV-3 ovarian, 59.4 µM; in the assay on PC-3 prostate, over 100 µM; in the assay with K-562 leukemia, over 100 µM; in the assay on U251 CNS it was 88.2 µM; in the assay on MDA-MB-435 it was over 100 µM. In addition, the TGI is 75.7 µM in the assay with COLO 205 colon, 60.7 µM in the assay on T-47D breast and over 100 µM in the assay on HCT-15 colon.
